The values below come from US12351804B2, “Production method for bifurcated lipid-linked oligonucleotide, and intermediate” (Shionogi & Co., Ltd., priority 2019, dated 2025).

The nature of the data set: Stability of the amidite intermediate on storage (UPLC/HPLC analysis). Format: physicochemical. Here is the method: The following conditions were used for the analysis of compound 5.
Mobile phase [A]: 60 mM ammonia-ammonium acetate-containing buffer solution (pH 8.0), Mobile phase [B]: acetonitrile
Gradient: 15% solvent [B] was kept for 0.5 minutes, then linear gradient from 15% to 50% solvent [B] was performed in 2.5 minutes, linear gradient from 50% to 65% solvent [B] was performed in 9 minutes, linear gradient from 65% to 95% solvent [B] was performed in 3 minutes, and 95% solvent [B] was kept for 1 minute.
Column: ACQUITY UPLC (registered trademark) BEH Phenyl (1.7 μm, i.d. 2.1×100 mm) (Waters)
UV Detection wavelength: 295 nm
The following conditions were used for the analysis of comparative compound.
Mobile phase [A]: 10 mM ammonium formate-containing aqueous solution, Mobile phase [B]: methanol
Gradient: 97% solvent [B] was kept for 20 minutes.
Column: Triart (registered trademark) C8 (3 μm, i.d. 4.6×100 mm) (YMC)
Detector: Corona CAD, Corona CAD detection conditions: 60 Hz, BCD polarity+, pressure 35±1 psi, total flow rate 1.53 mL/min

With `CCCCCCCCCCCCCCCCCCCC(=O)NCC(CNC(=O)CCCCCCCCCCCCCCCCCCC)OP(OCCC#N)N(C(C)C)C(C)C` (centres unmarked) [Comparative compound], the “Stability (analysis value)” value runs as follows: (−20° C., after 7 months) 33.8%; (−20° C., after 71 days) 42.0%; (−20° C., initial) 54.3%. Moreover, the Decomposition on storage entry (−20° C., over time) is recorded as “unstable”.

As for `CC(C)N(C(C)C)P(OCCC#N)OC(CN1C(=O)c2ccccc2C1=O)CN1C(=O)c2ccccc2C1=O` (centres unmarked) [Compound 5], under “40° C. for 50 days”, the Decomposition on storage result is “No decomposition”. In addition, the “Stability (analysis value)” value reads like this: (40° C., after 7 days) 99.6%; (40° C., after 50 days) 99.7%; (40° C., initial) 99.6%.
